For 8 compounds, IC50 results are on record in patent US20240360137A1 (Novartis AG, priority 2023, published 2024).

Where only a bound is given, the exact number is not on record here.

What is called IC50 is the concentration that inhibits the measured activity by half. The low end stands for inhibition by little substance, the high end for a need for much substance.

What all share (test): CDKi biochemical assay (TR-FRET, phosphorylation of S780 on RB1 peptide)
For orientation: In TR-FRET formats the signal depends on donor and acceptor labels being close together.

The target of test [1] is CDK2/CyclinE1 (Homo sapiens, UniProt P24941). As to conditions: CDK2/CyclinE1 100 pM, 1 mM ATP, 60 min at 25° C. The gist of the method:
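CDK2/CyclinE1 (Avi-tag, 100 pM; CDK2 E. coli-expressed) phosphorylated His-MBP-RB1[773-924] (200 nM) at S780 with 1 mM ATP in HEPES pH 7.5/MgCl2/DTT, 60 min at 25° C. After EDTA quench, TR-FRET detection ran 3 h (Eu anti-p-RB S780, SA-APC). Apparent IC50 came from percent activity versus log concentration.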

The target of test [2] is CDK6/cyclinD3 (Homo sapiens, UniProt Q00534). As to conditions: CDK6/cyclinD3 10 pM, 1 mM ATP, 60 min at 25° C. The gist of the method: (§1)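 Avi-tagged, biotinylated CDK4/cyclinD1 (20 pM) or CDK6/cyclinD3 (10 pM) phosphorylates 200 nM His-MBP-RB1[773-924] at S780 with 1 mM ATP in HEPES pH 7.5/MgCl2, 60 min, 25° C. After EDTA quench, Eu anti-pRB(S780)/SA-APC TR-FRET is read after 3 h. Apparent IC50 comes from % activity versus log concentration.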

The target in test [3] is CDK4/cyclinD1 (Homo sapiens, UniProt P11802). The following applies: CDK4/cyclinD1 20 pM, 1 mM ATP, 60 min at 25° C. The gist of the method: as §1
Test [4] deals with CDK1/CyclinB1 (Homo sapiens, UniProt P06493). As to conditions: CDK1/CyclinB1 10 pM, 1 mM ATP, 60 min at 25° C. The gist of the method: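 CDK1/CyclinB1 (10 pM, Avi-tagged, insect-cell expressed) phosphorylated S780 of His-MBP-RB1[773-924] (200 nM) with 1 mM ATP in HEPES pH 7.5, 10 mM MgCl2, 1 mM DTT, 60 min at 25 °C. After EDTA quench, TR-FRET detection (Eu anti-pRB S780, SA-APC) for 3 h; apparent IC50 from percent activity versus log concentration.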

As for `O=C1N([C@@H]2CCC[C@@H](O)C2)c2nc(Nc3c[nH]nc3OC3CCC3)ncc2C12CC2` [Example 40, 2′-((3-cyclobutoxy-1H-pyrazol-4-yl)amino)-7′-((1R,3R)-3-hydroxycyclohexyl)spiro[cyclopropane-1,5′-pyrrolo[2,3-d]pyrimidin]-6′(7′H)-one], the IC50 is 26 nM in test [1], no less than 10000 nM in test [2], no less than 10000 nM in test [3] and 2890 nM in test [4].

Take `O=C1N([C@@H]2CCC[C@@H](O)C2)c2nc(Nc3c[nH]nc3OCC(F)F)ncc2C12CC2` [Example 41, 2′-((3-(2,2-difluoroethoxy)-1H-pyrazol-4-yl)amino)-7′-((1R,3R)-3-hydroxycyclohexyl)spiro[cyclopropane-1,5′-pyrrolo[2,3-d]pyrimidin]-6′(7′H)-one]: the IC50 in test [1] worked out at 5 nM; in test [2] it was 5090 nM; in test [3], 2680 nM; in test [4], 730 nM.

Turning to `O=C1N([C@@H]2CCC[C@@H](O)C2)c2nc(Nc3c[nH]nc3OCCO)ncc2C12CC2` [Example 42, 7′-((1R,3R)-3-hydroxycyclohexyl)-2′-((3-(2-hydroxyethoxy)-1H-pyrazol-4-yl)amino)spiro[cyclopropane-1,5′-pyrrolo[2,3-d]pyrimidin]-6′(7′H)-one], the half-inhibitory concentration (IC50) turned out to be 24 nM in test [1], 3010 nM in test [2], 3640 nM in test [3] and 3740 nM in test [4].

`Cn1ccc(COc2n[nH]cc2Nc2ncc3c(n2)N([C@@H]2CCC[C@@H](O)C2)C(=O)C32CC2)n1` [Example 43, 7′-((1R,3R)-3-hydroxycyclohexyl)-2′-((3-((1-methyl-1H-pyrazol-3-yl)methoxy)-1H-pyrazol-4-yl)amino)spiro[cyclopropane-1,5′-pyrrolo[2,3-d]pyrimidin]-6′(7′H)-one]: the IC50 in test [1] is 19 nM; in test [2], 8840 nM; in test [3], 3090 nM; in test [4] it was 1760 nM.

With `COCC(F)(F)COc1n[nH]cc1Nc1ncc2c(n1)N([C@@H]1CCC[C@@H](O)C1)C(=O)C21CC1` [Example 44, 2′-((3-(2,2-difluoro-3-methoxypropoxy)-1H-pyrazol-4-yl)amino)-7′-((1R,3R)-3-hydroxycyclohexyl)spiro[cyclopropane-1,5′-pyrrolo[2,3-d]pyrimidin]-6′(7′H)-one], the IC50 was found to be 15 nM in test [1], 7130 nM in test [2], 4410 nM in test [3] and 1810 nM in test [4].

As for `O=C1N([C@@H]2CCC[C@@H](O)C2)c2nc(Nc3c[nH]nc3OCC3(F)CC3)ncc2C12CC2` [Example 45, 2′-((3-((1-fluorocyclopropyl)methoxy)-1H-pyrazol-4-yl)amino)-7′-((1R,3R)-3-hydroxycyclohexyl)spiro[cyclopropane-1,5′-pyrrolo[2,3-d]pyrimidin]-6′(7′H)-one], the IC50 in test [1] was 11 nM; in test [2], 3500 nM; in test [3], 1230 nM; in test [4], 770 nM.

Turning to `O=C1N([C@@H]2CCC[C@@H](O)C2)c2nc(Nc3c[nH]nc3OC3CN(CC(F)(F)F)C3)ncc2C12CC2` [Example 46, 7′-((1R,3R)-3-hydroxycyclohexyl)-2′-((3-((1-(2,2,2-trifluoroethyl)azetidin-3-yl)oxy)-1H-pyrazol-4-yl)amino)spiro[cyclopropane-1,5′-pyrrolo[2,3-d]pyrimidin]-6′(7′H)-one], the IC50 is 109 nM in test [1], no less than 10000 nM in test [2], no less than 10000 nM in test [3] and no less than 10000 nM in test [4].

`O=C1N([C@@H]2CCC[C@@H](O)C2)c2nc(Nc3c[nH]nc3-c3cnn4c3CCC4)ncc2C12CC2` [Example 47, 2′-((3-(5,6-dihydro-4H-pyrrolo[1,2-b]pyrazol-3-yl)-1H-pyrazol-4-yl)amino)-7′-((1R,3R)-3-hydroxycyclohexyl)spiro[cyclopropane-1,5′-pyrrolo[2,3-d]pyrimidin]-6′(7′H)-one]: the IC50 in test [1] was 27 nM; in test [2], 7550 nM; in test [3], 6380 nM; in test [4] it was no less than 10000 nM.
